Columns and labels:
[1] = Inhibition of Saccharomyces cerevisiae alpha-glucosidase using para-nitrophenyl-alpha-D-glucopyranoside as substrate preincubated for 15 mins followed by substrate addition measured after 30 mins by spectrophotometric method
[2] = Non-competitive inhibition of Saccharomyces cerevisiae alpha-glucosidase using para-nitrophenyl-alpha-D-glucopyranoside as substrate preincubated for 15 mins followed by substrate addition measured after 30 mins by Lineweaver-Burk plot analysis

Which IC50 [1] does the source give for `OC(CSc1nnc(-c2ccco2)c(-c2ccco2)n1)Cn1c2ccccc2c2ccccc21` (stereo not drawn) here?
Its IC50 is 17.7 µM.

With `OC(CSc1nnc(-c2cccc(Br)c2)c(-c2cccc(Br)c2)n1)Cn1c2ccccc2c2ccccc21` (stereo not drawn) as the molecule, how does the IC50 [1] read?
The IC50 was 20.1 µM.

Which IC50 [1] does the source give for `OC(CSc1nnc(-c2ccc(F)cc2)c(-c2ccc(F)cc2)n1)Cn1c2ccccc2c2ccccc21` (stereo not drawn) here?
The IC50 was 17.6 µM.

Which IC50 [1] does the source give for `OC(CSc1nnc(-c2ccccc2F)c(-c2ccccc2F)n1)Cn1c2ccccc2c2ccccc21` (stereo not drawn) here?
The IC50 was 21.1 µM.

With `O=[N+]([O-])c1ccc2c(c1)c1ccccc1n2CC(O)CSc1nnc(-c2ccccc2F)c(-c2ccccc2F)n1` (stereo not drawn) as the molecule, how does the IC50 [1] read?
The IC50 was 22.1 µM.

Which IC50 [1] does the source give for `OC(CSc1nnc(-c2ccccc2)c(-c2ccccc2)n1)Cn1c2ccc(Cl)cc2c2cc(Cl)ccc21` (stereo not drawn) here?
Its IC50 is 27.8 µM.

Which IC50 [1] does the source give for `OC(CSc1nnc(-c2cccc(Br)c2)c(-c2cccc(Br)c2)n1)Cn1c2ccc(Cl)cc2c2cc(Cl)ccc21` (stereo not drawn) here?
Its IC50 is 19.2 µM.

With `OC(CSc1nnc(-c2ccccc2Cl)c(-c2ccccc2Cl)n1)Cn1c2ccccc2c2ccccc21` (stereo not drawn) as the molecule, how does the IC50 [1] read?
The IC50 was 47.8 µM.

Which IC50 [1] does the source give for `OC(CSc1nnc(-c2ccccc2)c(-c2ccccc2)n1)Cn1c2ccccc2c2ccccc21` (stereo not drawn) here?
Its IC50 is 31.3 µM.

With `OC(CSc1nnc(-c2cccc(F)c2)c(-c2cccc(F)c2)n1)Cn1c2ccc(Cl)cc2c2cc(Cl)ccc21` (stereo not drawn) as the molecule, how does the IC50 [1] read?
The IC50 was 33.1 µM.

With `OC(CSc1nnc(-c2cccc(Br)c2)c(-c2cccc(Br)c2)n1)Cn1c2ccc(Br)cc2c2cc(Br)ccc21` (stereo not drawn) as the molecule, how does the IC50 [1] read?
The IC50 was 9.56 µM.

For `OC(CSc1nnc(-c2ccccc2)c(-c2ccccc2)n1)Cn1c2ccc(Br)cc2c2cc(Br)ccc21` (stereo not drawn), which IC50 [1] is on record?
Its IC50 is 19.3 µM.

With `OC(CSc1nnc(-c2ccco2)c(-c2ccco2)n1)Cn1c2ccc(Br)cc2c2cc(Br)ccc21` (stereo not drawn) as the molecule, how does the IC50 [1] read?
The IC50 was 4.27 µM.

What about the Ki [2] of the same molecule?
The Ki was 4.43 µM.

For `OC(CSc1nnc(-c2ccco2)c(-c2ccco2)n1)Cn1c2ccc(Cl)cc2c2cc(Cl)ccc21` (stereo not drawn), which IC50 [1] is on record?
Its IC50 is 9.24 µM.

For `O=[N+]([O-])c1ccc2c(c1)c1ccccc1n2CC(O)CSc1nnc(-c2ccccc2)c(-c2ccccc2)n1` (stereo not drawn), which IC50 [1] is on record?
Its IC50 is 25 µM.

With `OC(CSc1nnc(-c2ccccc2F)c(-c2ccccc2F)n1)Cn1c2ccc(Br)cc2c2cc(Br)ccc21` (stereo not drawn) as the molecule, how does the IC50 [1] read?
The IC50 was 12.8 µM.

For `C[C@@H]1O[C@@H](O[C@@H]2[C@@H](O)[C@H](O)[C@H](O[C@H]3[C@H](O)[C@@H](O)C(O)O[C@@H]3CO)O[C@H]2CO)[C@@H](O)[C@H](O)[C@H]1N[C@H]1C=C(CO)[C@@H](O)[C@H](O)[C@H]1O` (stereo partly drawn), which IC50 [1] is on record?
Its IC50 is 996 µM.
